Measured values taken from patent US20160052936A1, “SPIROINDOLINE DERIVATIVES FOR USE AS GONADOTROPIN-RELEASING HORMONE RECEPTOR ANTAGONISTS” (BAYER PHARMA AKTIENGESELLSCHAFT, priority 2013, published 2016).

Experiments:
human GnRHR = target: T1, human GnRHR (Homo sapiens, UniProt P30968); test: Tag-Lite receptor binding assay; settings: Hek293 cells transiently transfected with human GnRHR; displacement of green-labelled GnRHR binding peptide; read-out: Potency in receptor binding assay using TAG-LITE technology, given as IC50
T1 construct: own knowledge: Tag-lite cells usually carry an N-terminal SNAP-tag fusion; host or cells: Hek293 cells, transiently transfected, supplied frozen
T1 sequence (P30968 1-328): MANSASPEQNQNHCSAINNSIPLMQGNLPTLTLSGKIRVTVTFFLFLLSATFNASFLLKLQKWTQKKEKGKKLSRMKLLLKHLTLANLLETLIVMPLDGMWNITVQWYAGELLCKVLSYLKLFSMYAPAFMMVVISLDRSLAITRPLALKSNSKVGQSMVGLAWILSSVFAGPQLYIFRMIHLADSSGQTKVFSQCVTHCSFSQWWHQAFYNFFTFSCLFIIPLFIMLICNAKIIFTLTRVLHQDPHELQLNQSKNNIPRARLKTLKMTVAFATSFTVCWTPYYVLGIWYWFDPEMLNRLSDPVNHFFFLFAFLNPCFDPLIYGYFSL
Excerpt: 2.2. Tag-Lite® Receptor Binding Assay
This binding assay is based on the fluorescence resonance energy transfer between fluorescence donor labelled human GnRHR and a green-labelled GnRHR binding peptide. Compounds interfering with the ligand binding side of the human GnRHR will replace the labelled peptide resulting in a signal decrease. The assay principle was established by Cisbio Bioassays (Bagnols-sur-Cèze Cedex, France) and further details are available on their homepage.
The assay procedure was further optimized for use in-house with reduced assay volumes. Frozen Hek293 cells, transiently transfected with human GnRHR and Terbium-labelling of the receptor, were supplied by Cisbio Bioassays as well as Tag-Lite buffer and green-labelled GnRHR binding peptide. Cells were thawed and transferred to cold Tag-Lite buffer. A volume of 8 μl of this cell suspension were added to 100 nl of a 160-fold concentrated solution of the test compound in DMSO pre-dispensed in a well of a white low-volume 384-well microtiter plate (Greiner Bio-One, Frickenhausen, Germany). The mixture was incubated for 5 min at room temperature. In the next step either 4 μl Tag-Lite buffer or as control 4 μl of an exceeding amount unlabelled binding peptide in Tag-Lite buffer were transferred to the mixture. The green-labelled GnRHR binding peptide was added in a final step at EC50 in a volume of 4 μl Tag-Lite buffer. After an incubation of 1 h at room temperature plates were measured in a microplate reader, e.g. a PHERAstar (BMG Labtechnologies, Offenburg, Germany) by using a specific optic module.
A ratio from the fluorescence emissions at 520 nm (green fluorescence) and at 490 nm (background signal of Terbium-labelled GnRHR) was calculated and the data were normalized (reaction without test compound=0% inhibition of binding of green-labelled peptide; reaction without test compound with exceeding amount unlabelled binding peptide=100% inhibition of binding of green-labelled peptide). On the same microtiter plate, compounds were tested at 10 different concentrations in the range of 12.5 μM to 0.64 nM (12.5 μM, 4.2 μM, 1.4 μM, 0.46 μM, 0.15 μM, 51 nM, 17 nM, 5.7 nM, 1.9 nM and 0.64 nM; dilution series prepared before the assay at the level of the 160-fold conc. stock solutions by serial 1:3 dilutions in 100% DMSO) in duplicate values for each concentration. By using an in-house software, the IC50 values were calculated by a 4 parameter fit.

[1] = tested on: LH level in ovariectomized rats; test: LH suppression in the ovariectomized rat; format: in vivo; settings: for LH suppression: 8 hours after administration
Excerpt: 2.5. LH Suppression in the Ovariectomized Rat
The in vivo potency of GnRH antagonists can be quantified by a LH suppression test in ovariectomized rats. GnRH triggers the LH release from the pituitary mediated by GnRH receptors. Ovarectomy of adult female rats results in elevated levels of circulating LH due to a lack of negative feedback by gonadal steroids. GnRH antagonists suppress the release of LH and accordingly suppression of LH levels can be used to quantify the in vivo potency of GnRH antagonists.
Female adult rats were ovariectomized surgically and they were allowed to recover for at least one week. The animals received 0.5 mg/kg, 3 mg/kg or 10 mg/kg of Example 3.1 by single per oral administration. For comparison reasons a vehicle control and a positive control, 0.1 mg/kg cetrorelix (i.p.), were given once. At 0 min, 15 min, 30 min, 1 hour, 2 hours, 4 hours, 8 hours and 24 hours after compound administration blood was taken from the retro orbital plexus (n=6 per blood withdrawal) for the measurement of serum LH and serum compound levels.
As nonbinding explanatory example of compounds according to the invention FIG. 1 represents the LH level following administration of the compound according to Example 3.1, to ovariectomized adult rats. [Filled circle: Vehicle; Circle, dotted black line: Cetrorelix (0.1 mg/kg); Triangle: Example 3.1 (0.5 mg/kg); Reverse triangle: Example 3.1 (3 mg/kg); Diamond: Example 3.1 (10 mg/kg)]. Values are given as mean+standard deviation (n=6).

Row | Structure (SMILES) | IC50 (human GnRHR) | LH suppression ([1]; 0.5 mg/kg single per oral administration) | LH suppression ([1]; 3 mg/kg single per oral administration) | LH suppression ([1]; 10 mg/kg single per oral administration) | in vivo GnRH antagonist activity (conclusion) ([1]; per oral administration)
1 | O=C(NCc1ncc(C(F)(F)F)cc1F)c1ccc2c(c1)C1(CCS(=O)(=O)CC1)[C@H](C1CC1)N2S(=O)(=O)c1ccc(F)cc1 (single isomer, unassigned) [Example 1.1] | 230 nM | – | – | – | –
2 | O=C(NCc1ncc(C(F)(F)F)cc1Cl)c1ccc2c(c1)C1(CCS(=O)(=O)CC1)[C@H](C1CC1)N2S(=O)(=O)c1ccc(F)cc1 [Example 3.1, (2S)—N-{[3-chloro-5-(trifluoromethyl)pyridin-2-yl]methyl}-2-cyclopropyl-1-[(4-fluorophenyl)sulfonyl]-1,2,2′,3′,5′,6′-hexahydrospiro[indole-3,4′-thiopyran]-5-carboxamide 1′,1′-dioxide] | 16.7 nM | 19% | 48% | 90% | orally active GnRH antagonist in vivo
3 | N#Cc1cccc(S(=O)(=O)N2c3ccc(C(=O)NCc4ncc(C(F)(F)F)cc4Cl)cc3C3(CCS(=O)(=O)CC3)[C@@H]2C2CC2)c1 (single isomer, unassigned) [Example 10.1] | 10.3 nM | – | – | – | –
